# Molecular target: T1, FGFR1 (Homo sapiens, UniProt P11362)
# T1 construct: purchased Thermo Fisher Scientific (Life Technologies) SelectScreen
# Experiment: SelectScreen Z'LYTE
# Assay type: biochemical
# Summary of the method: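 SelectScreen broad panel; activity (Z'LYTE, Adapta) plus binding formats. ATP: Km app for CSF1R Z'LYTE; 10 for CAMK1 Adapta. Readout = % per kinase.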
# T1 sequence (P11362 22-822): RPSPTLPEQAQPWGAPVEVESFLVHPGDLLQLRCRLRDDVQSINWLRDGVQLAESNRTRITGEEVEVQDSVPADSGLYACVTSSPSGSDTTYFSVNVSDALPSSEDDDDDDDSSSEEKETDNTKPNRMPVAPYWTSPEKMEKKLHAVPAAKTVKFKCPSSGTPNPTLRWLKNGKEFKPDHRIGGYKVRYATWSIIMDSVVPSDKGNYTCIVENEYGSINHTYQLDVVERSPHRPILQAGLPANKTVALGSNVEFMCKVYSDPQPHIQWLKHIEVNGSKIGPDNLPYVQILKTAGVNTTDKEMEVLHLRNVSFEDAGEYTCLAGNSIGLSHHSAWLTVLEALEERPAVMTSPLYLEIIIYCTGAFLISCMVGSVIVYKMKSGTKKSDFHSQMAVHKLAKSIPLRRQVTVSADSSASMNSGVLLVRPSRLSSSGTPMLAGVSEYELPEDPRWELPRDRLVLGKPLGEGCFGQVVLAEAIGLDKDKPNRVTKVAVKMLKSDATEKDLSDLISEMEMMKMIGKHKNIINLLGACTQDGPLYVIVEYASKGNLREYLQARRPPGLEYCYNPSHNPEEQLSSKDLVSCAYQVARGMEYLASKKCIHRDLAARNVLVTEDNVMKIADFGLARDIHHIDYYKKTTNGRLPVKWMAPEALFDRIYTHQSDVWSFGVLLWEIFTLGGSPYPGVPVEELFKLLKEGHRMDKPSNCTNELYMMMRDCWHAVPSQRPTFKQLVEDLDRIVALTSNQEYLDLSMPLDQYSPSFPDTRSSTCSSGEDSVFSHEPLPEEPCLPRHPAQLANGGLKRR
structure (smiles),measurement,value
CN(C(=O)CN1CCOCC1)c1ccc2sc3c(-c4cccc5c(=O)cc(N6CC7CCC(C6)O7)oc45)cccc3c2c1 [NU5455],inhibition at 1 µM,4.7%
